We go through 16 compounds from patent publication US7776847B2, “Benzisothiazoles useful for treating or preventing HCV infection” (priority 2005, dated 2010).

For the experiment, the system named is HCV replicon. The experiment in a line: HCV replicon luciferase reporter assay. In kind it is cell-based. The arrangement: scale not given here. As to conditions: Table 5. The method, then:
The inhibitory activity of certain exemplary compounds of the invention was confirmed using an HCV replicon assay. The HCV replicon can include such features as the HCV IRES, the HCV 3′ untranslated region, selected HCV genes encoding HCV polypeptides, selectable markers, and a reporter gene such as luciferase, GFP, etc. In the assay, actively dividing replicon-comprising cells were seeded at a density of between about 5,000 and 7,500 cells/well onto 96 well plates (about 90 μl of cells per well) and incubated at 37° C. and 5% CO2 for 24 hours. Then, the test compound (in a volume of about 10 μL) was added at various concentrations to each well and the cells were incubated for an additional 24-48 hours. The cells were harvested, and HCV replication or translation was monitored via a reporter assay, e.g., a luciferase reporter assay. The media was aspirated from each cell and Bright-Glo ([…].) luciferase assay reagents were added to each well according to the manufacturer's instructions. In this assay, the amount of test compound that yielded a 50% reduction in luciferase activity (IC50) was determined.

Where [1] appears, read: Hepatitis C virus, read-out: IC50.

Like-named read-outs stand apart in the source and are kept apart here.

For the compound `O=C(NCCNc1nsc2ccccc12)c1cc(C(F)(F)F)ccc1C(F)(F)F` [Compound 357, N-(2-(benzo[d]isothiazol-3-ylamino)ethyl)-2,5-bis(trifluoromethyl)benzamide], the IC50 under setting [1] was under 5 µM.
On the same count and under the same terms, under `O=S(=O)(NCCCNc1nsc2ccccc12)c1ccc(-c2ccc(OC(F)(F)F)cc2)cc1` [Compound 333, N-(3-(benzo[d]isothiazol-3-ylamino)propyl)-4′-(trifluoromethoxy)biphenyl-4-sulfonamide] stands under 5 µM.
Take `COc1ccc(-c2cccc(CNCCCNc3nsc4ccccc34)c2)cc1OC` [Compound 301, N^1-(benzo[d]isothiazol-3-yl)-N^3-((4′,5′-dimethoxybiphenyl-3-yl)methyl)propane-1,3-diamine]: the IC50 under setting [1] was under 5 µM.
For `CCCCc1ccc(C(=O)NCCCNC2=NS(=O)(=O)c3ccccc32)cc1` [Compound 322, 4-butyl-N-{3-[(1,1-dioxido-1,2-benzisothiazol-3-yl)amino]propyl}benzamide], the IC50 under setting [1] is over 5 µM.
For `O=S(=O)(NCCNc1nsc2ccccc12)c1ccc(Cl)cc1` [Compound 271, N-(2-(benzo[d]isothiazol-3-ylamino)ethyl)-4-chlorobenzenesulfonamide], the IC50 entry (the head prints only IC50, b387 says Tables 5 and 6 hold Replicon reporter and Western blot results) is reported as “A, B”.
As for `Cc1cc(S(=O)(=O)NCCCNc2nsc3ccccc23)ccc1Br` [Compound 265, N-(3-(benzo[d]isothiazol-3-ylamino)propyl)-4-bromo-3-methylbenzenesulfonamide], the IC50 under setting [1] was under 5 µM.
Same read-out and setting: in the case of `COc1ccc(OC)c(S(=O)(=O)NCCCNc2nsc3ccccc23)c1` [Compound 261, N-(3-(benzo[d]isothiazol-3-ylamino)propyl)-2,5-dimethoxybenzenesulfonamide] it was under 5 µM.
In the case of `O=C(NCCNc1nsc2ccccc12)c1cccc(-c2cnc3ccccc3c2)c1` [Compound 375, N-(2-(benzo[d]isothiazol-3-ylamino)ethyl)-3-(quinolin-3-yl)benzamide], under setting [1], the IC50 was under 5 µM.
Consider `CC(C)(C)OC(=O)N1CCC(NCCCNc2nsc3ccccc23)CC1` [Compound 307, tert-butyl 4-(3-(benzo[d]isothiazol-3-ylamino)propylamino)piperidine-1-carboxylate], for which the IC50 under setting [1] was under 5 µM.
`COc1ccc(C(=O)NCCCNc2nsc3ccccc23)cc1OC1CCCC1` [Compound 286, N-(3-(benzo[d]isothiazol-3-ylamino)propyl)-3-(cyclopentyloxy)-4-methoxybenzamide]: the IC50 under setting [1] is under 5 µM.
In the case of `c1ccc2oc(CNCCCNc3nsc4ccccc34)cc2c1` [Compound 337, N^1-(benzo[d]isothiazol-3-yl)-N^3-(benzofuran-2-ylmethyl)propane-1,3-diamine], the IC50 under setting [1] was under 5 µM.
As for `O=C(NCCNc1nsc2ccccc12)c1cc(F)cc(C(F)(F)F)c1` [Compound 353, N-(2-(benzo[d]isothiazol-3-ylamino)ethyl)-3-fluoro-5-(trifluoromethyl)benzamide], the IC50 under setting [1] was under 5 µM.
The same measure, in the same setting: in the case of `COc1ccc(-c2ccc(CN(CCCNc3nsc4ccccc34)S(=O)(=O)c3ccccc3C(F)(F)F)cc2)cc1` [Compound 270, N-(3-(benzo[d]isothiazol-3-ylamino)propyl)-N-((4′-methoxybiphenyl-4-yl)methyl)-2-(trifluoromethyl)benzenesulfonamide] it was under 5 µM; in that of `COc1ccccc1-c1cccc(C(=O)NCCCNc2nsc3ccccc23)c1` [Compound 384, N-(3-(benzo[d]isothiazol-3-ylamino)propyl)-6′-methoxybiphenyl-3-carboxamide], under 5 µM.
As for `CCCOc1cc(F)ccc1-c1cccc(C(=O)NCCCNc2nsc3ccccc23)c1` [Compound 383, N-(3-(benzo[d]isothiazol-3-ylamino)propyl)-4′-fluoro-6′-propoxybiphenyl-3-carboxaimde], the IC50 under setting [1] was under 5 µM.
On to `c1ccc(-c2[nH]c3ccccc3c2CNCCCNc2nsc3ccccc23)cc1` [Compound 330, N^1-(benzo[d]isothiazol-3-yl)-N^3-((2-phenyl-1H-indol-3-yl)methyl)propane-1,3-diamine], for which the IC50 under setting [1] is under 5 µM.
